# Results reported in patent publication US8618133B2, “Aralkyl alcohol pyridine derivative compounds and the use thereof as medicaments for treating depression” (priority 2008, dated 2013).
# Like-named read-outs stand apart in the source and are kept apart here.
# Key:
# [1] = target: T1, reuptake of 5-serotonin (5-HT) by brain synaptosomes (Rattus norvegicus, UniProt P31652); assay: [3H]5-HT reuptake by rat brain synaptosomes; type: biochemical; conditions: for inhibiting activity on the reuptake of 5-HT (in words): concentration 10 μmol/L, effectiveness equivalent to venlafaxine and DOV21947; for Inhibition of reuptake of 5-HT: rat prefrontal cortex synaptosomes, 0.1 mmol/L for control drug and drug to be detected
# T1 construct: taking prefrontal cortex for the [^3H]5-HT and [^3H]NA reuptake experiment; from tissue; host or cells: rat brain prefrontal cortex synaptosomes
# T1 sequence (P31652 whole entry): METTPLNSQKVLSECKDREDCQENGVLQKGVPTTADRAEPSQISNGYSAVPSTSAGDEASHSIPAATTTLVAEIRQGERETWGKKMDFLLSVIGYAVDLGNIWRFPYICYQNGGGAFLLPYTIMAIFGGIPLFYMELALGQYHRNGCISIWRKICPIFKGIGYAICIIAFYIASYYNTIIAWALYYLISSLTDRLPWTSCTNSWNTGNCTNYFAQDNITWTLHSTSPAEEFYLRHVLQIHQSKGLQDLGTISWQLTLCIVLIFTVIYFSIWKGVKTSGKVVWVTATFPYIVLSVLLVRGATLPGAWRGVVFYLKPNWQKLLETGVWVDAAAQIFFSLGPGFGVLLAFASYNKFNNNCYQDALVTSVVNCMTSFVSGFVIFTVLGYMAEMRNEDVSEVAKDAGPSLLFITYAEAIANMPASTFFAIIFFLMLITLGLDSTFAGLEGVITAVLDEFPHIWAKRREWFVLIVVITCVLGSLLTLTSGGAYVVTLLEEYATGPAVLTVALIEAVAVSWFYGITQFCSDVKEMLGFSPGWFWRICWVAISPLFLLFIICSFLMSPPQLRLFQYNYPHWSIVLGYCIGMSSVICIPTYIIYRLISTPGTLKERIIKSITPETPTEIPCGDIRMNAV
# [2] = target: T2, reuptake of norepinephrine (NA) by brain synaptosomes (Rattus norvegicus, UniProt Q63380); assay: [3H]NA reuptake by rat brain synaptosomes; type: biochemical; conditions: for inhibiting activity on the reuptake of NA (in words): concentration 10 μmol/L, effectiveness equivalent to venlafaxine and DOV21947; for Inhibition of reuptake of NA / inhibition at 100 µM: rat prefrontal cortex synaptosomes, 0.1 mmol/L for control drug and drug to be detected
# T2 construct: taking prefrontal cortex for the [^3H]5-HT and [^3H]NA reuptake experiment; from tissue; host or cells: rat brain prefrontal cortex synaptosomes
# T2 sequence (Q63380 1-617): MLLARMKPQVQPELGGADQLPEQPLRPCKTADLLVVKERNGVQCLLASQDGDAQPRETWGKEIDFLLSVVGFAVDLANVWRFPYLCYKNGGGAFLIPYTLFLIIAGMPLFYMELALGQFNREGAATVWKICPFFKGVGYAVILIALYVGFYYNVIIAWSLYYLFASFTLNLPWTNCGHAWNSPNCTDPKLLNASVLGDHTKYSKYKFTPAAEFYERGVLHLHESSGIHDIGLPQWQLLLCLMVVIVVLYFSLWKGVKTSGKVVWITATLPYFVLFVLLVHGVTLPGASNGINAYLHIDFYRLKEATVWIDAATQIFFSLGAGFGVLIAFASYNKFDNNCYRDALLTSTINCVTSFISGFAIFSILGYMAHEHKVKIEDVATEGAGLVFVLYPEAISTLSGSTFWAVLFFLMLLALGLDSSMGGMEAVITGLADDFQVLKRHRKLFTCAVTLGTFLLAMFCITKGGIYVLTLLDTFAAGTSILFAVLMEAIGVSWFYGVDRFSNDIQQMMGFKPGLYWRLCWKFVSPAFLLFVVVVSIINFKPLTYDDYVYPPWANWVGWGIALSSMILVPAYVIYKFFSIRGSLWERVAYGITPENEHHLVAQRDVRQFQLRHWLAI
# [3] = target: T3, reuptake of dopamine (DA) by brain synaptosomes (Rattus norvegicus, UniProt P23977); assay: [3H]DA reuptake by rat brain synaptosomes; type: biochemical; conditions: for inhibiting activity on the reuptake of DA (in words): concentration 10 μmol/L, effectiveness equivalent to venlafaxine and DOV21947; for Inhibition of reuptake of DA / inhibition at 100 µM: rat striatum synaptosomes, 0.1 mmol/L for control drug and drug to be detected
# T3 construct: taking striatum for the [^3H]DA reuptake experiment; from tissue; host or cells: rat brain striatum synaptosomes
# T3 sequence (P23977 whole entry): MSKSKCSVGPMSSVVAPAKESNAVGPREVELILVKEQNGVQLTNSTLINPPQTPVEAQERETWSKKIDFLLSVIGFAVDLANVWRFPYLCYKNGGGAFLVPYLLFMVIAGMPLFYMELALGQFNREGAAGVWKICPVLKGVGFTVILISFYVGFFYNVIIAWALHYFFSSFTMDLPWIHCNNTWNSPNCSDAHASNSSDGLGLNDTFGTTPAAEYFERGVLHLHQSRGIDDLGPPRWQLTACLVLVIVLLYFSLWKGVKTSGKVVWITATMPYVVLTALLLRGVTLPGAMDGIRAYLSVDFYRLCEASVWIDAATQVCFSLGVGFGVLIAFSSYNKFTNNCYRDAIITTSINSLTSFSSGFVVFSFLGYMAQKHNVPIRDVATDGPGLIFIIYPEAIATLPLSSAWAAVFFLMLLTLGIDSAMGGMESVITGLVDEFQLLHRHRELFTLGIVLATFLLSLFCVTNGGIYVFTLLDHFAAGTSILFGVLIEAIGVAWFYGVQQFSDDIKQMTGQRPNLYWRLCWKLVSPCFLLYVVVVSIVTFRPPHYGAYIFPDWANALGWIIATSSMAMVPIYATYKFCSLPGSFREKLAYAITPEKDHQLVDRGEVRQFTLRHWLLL
# mice [4] = assay: forced swimming test of mice (immobility); type: in vivo; conditions: for Immobility time: mice, swimming test
# mice [5] = assay: Acute toxicity, single dosage LD50 to mice; type: in vivo; conditions: Bliss statistics, preliminary screening
# [6] = test system: Salmonella typhimurium histidine auxotroph mutant TA97, TA98, TA100 and TA102; type: cell-based
# From the text: Strains: Salmonella typhimurium histidine auxotroph mutant TA97, TA98, TA100 and TA102.
# The experimental method: the method reported in Maron D M et al: (1983) Mutay Res. 113, 173-216 is used;
# The experimental result: the experiment comprises two parts: −S9 and +S9.
SMILES,inhibiting activity on the reuptake of 5-HT (in words) [1],Inhibition of reuptake of 5-HT [1],inhibiting activity on the reuptake of NA (in words) [2],Inhibition of reuptake of NA [2],inhibiting activity on the reuptake of DA (in words) [3],Inhibition of reuptake of DA [3],also measured
"COc1ccc2cc([C@@H](O)[C@H](C)N3CCC(Cc4ccccc4)CC3)ccc2c1Cl [Compound V-2, Erythro-4-benzyl-N-[1-methyl-2-hydroxy-2-(5-chloro-6-methoxynaphthalene-2-yl)]ethylpiperidine]",stronger inhibiting activity,105.6 ± 0.9,stronger inhibiting activity,65.3 ± 6.7,stronger inhibiting activity,93.1 ± 2.0,
"COc1ccc2cc([C@@H](O)[C@H](C)N3CCC(O)(Cc4ccccc4)CC3)ccc2c1Cl [Compound V-14, Erythro-4-benzyl-4-hydroxy-N-[1-methyl-2-hydroxy-2-(5-chloro-6-methoxynaphthalene-2-yl)]ethylpiperidine]",stronger inhibiting activity,94.9 ± 1.2,stronger inhibiting activity,93.0 ± 20.8,stronger inhibiting activity,91.0 ± 0.9,"in vivo anti-depression activity (in words) (mice [4]; forced swimming test of mice, effect similar to venlafaxine): strong in vivo anti-depression activity; Immobility time (mice [4]; dosage 6.9 mg/kg): 52.8 ± 32.0 s; Immobility time (mice [4]; dosage 13.8 mg/kg): 82.1 ± 62.0 s; Immobility time (mice [4]; dosage 27.6 mg/kg): 74.9 ± 37.8 s; LD50 (mice [5]): 1150 mg/kg; bacteriostatic effect ([6]; 5000 μg/dish, TA97, S9 added testing system): have bacteriostatic effect; bacteriostatic effect ([6]; 5000 μg/dish, non-S9 testing system): have bacteriostatic effect; Ames test, reverse mutation ([6]; all tested dosages, with or without S9): negative; bacteriostatic effect ([6]; other dosages, all strains): do nut have a bacteriostatic effect"
"COc1ccc2cc(C(O)CCN3CCC(=Cc4ccccc4)CC3)ccc2c1Cl (centres unmarked) [Compound V-32, 4-benzyl-methylene-N-[3-hydroxy-3-(5-chloro-6-methoxynaphthalene-2-yl)]propylpiperidine]",stronger inhibiting activity,104.4 ± 2.0,stronger inhibiting activity,36.6 ± 19.1,stronger inhibiting activity,92.4 ± 7.6,
"COc1ccc2cc(C(O)C(C)N3CCC(=Cc4ccc(F)cc4)CC3)ccc2c1Cl (centres unmarked) [Compound V-34, 4-(4-fluorobenzyl)-methylene-N-[1-methyl-2-hydroxy-2-(5-chloro-6-methoxynaphthalene-2-yl)]ethyl-piperidine]",,106.3 ± 2.3,,18.8 ± 13.4,,99.1 ± 4.3,
"COc1ccc2cc(C(O)C(C)N3CCC(=Cc4ccccc4)CC3)ccc2c1Cl (centres unmarked) [Compound V-38, 4-benzyl-methylene-N-[1-methyl-2-hydroxy-2-(5-chloro-6-methoxynaphthalene-2-yl)]ethyl-piperidine]",stronger inhibiting activity,107.0 ± 0.5,stronger inhibiting activity,87.4 ± 5.5,stronger inhibiting activity,99.6 ± 2.9,
"COc1ccc2cc([C@@H](O)[C@H](C)N3CC=C(Cc4ccccc4)CC3)ccc2c1Cl [Compound V-40, Erythro-4-benzyl-N-[1-methyl-2-hydroxy-2-(5-chloro-6-methoxynaphthalene-2-yl)]ethyl-1,2,3,6-tetrahydropyridine]",,99.5 ± 1.6,,62.6 ± 15.3,,50.7 ± 21.8,
"COc1ccc2cc([C@@H](O)[C@H](C)N3CCC(OCc4ccccc4)CC3)ccc2c1Cl [Compound V-50, Erythro-4-benzyloxy-N-[1-methyl-2-hydroxy-2-(5-chloro-6-methoxynaphthalene-2-yl)]ethylpiperidine]",,91.8 ± 1.6,,41.8 ± 7.3,,23.1 ± 16.8,
"Clc1ccc([C@]23CNC[C@H]2C3)cc1Cl [DOV 21947, reference compound]",,,,,,,inhibition at 100 µM ([1]; read-out: Inhibition of reuptake of 5-HT): 109 ± 3.8%; inhibition at 100 µM [2]: 61.9 ± 6%; inhibition at 100 µM [3]: 104 ± 4.2%
"COc1ccc(C(CN(C)C)C2(O)CCCCC2)cc1 (centres unmarked) [venlafaxine, reference compound]",,,,,,,inhibition at 100 µM [2]: 46.4 ± 4.6%; inhibition at 100 µM [3]: 48.6 ± 4.1%; Immobility time (mice [4]; dosage 4.56 mg/kg): 57.1 ± 37.8 s; Immobility time (mice [4]; dosage 9.12 mg/kg): 77.4 ± 47.2 s; Immobility time (mice [4]; dosage 18.24 mg/kg): 80.8 ± 46.8 s
